Data reported in patent publication US12144792B2, “Therapeutic agents for neurodegenerative diseases” (priority 2016, dated 2024).

Key:
Assay type in all cases: in vivo, human
[1] = system: patients with downbeat nystagmus; assay: Case studies, clinical examination (visual acuity, posturography)
Source text: The patient was diagnosed with downbeat nystagmus: the patient was severely impaired by blurred vision (oscillopsia) due to the nystagmus, and experienced difficulties while reading and writing. The patient's visual acuity was: right 0.75, left 0.67, binocular 0.83, and the downbeat nystagmus was documented by video-oculography. […] […] […] The patient was able to suppress the nystagmus by visual fixation. In addition, the patient's spatial orientation was improved.

[2] = system: patient with corticobasal syndrome; assay: Case study, clinical examination; settings: Ex. 10, corticobasal syndrome
Description: Gait analysis was performed before treatment commenced. After 20 days of acetyl-leucine treatment, the patient was re-examined. […] After 8 weeks of acetyl-leucine treatment, medication was stopped and the patient was re-examined 6 days later.

[3] = system: patients with multiple system atrophy Parkinson type (MSA-P); assay: Case studies, clinical examination
Source text: Medication was stopped. […] The patient evaluated after one month on acetyl-DL-leucine. […] Episodes of mental confusion completely disappeared. The patient's cognitive structure seemed much clearer and straighter. […] The patient's spouse supported continuing the medication.

[4] = system: patient with Lewy Body dementia; assay: Case study, clinical evaluation; settings: Ex. 17, Lewy Body dementia; Levodopa 100 mg 4× daily and Quetiapin 25 mg at night together
Description: The patient started taking acetyl-leucine (3 g/day for one week; 5 g/day thereafter) and was evaluated after four weeks. […] Medication was reduced to 3 g/day, and the patient was instructed to stop medication about two weeks later.

[5] = system: patients with progressive supranuclear palsy; assay: Case studies, clinical examination
Description: After 27 days of acetyl-leucine treatment, medication was stopped and the patient was re-examined 60 days later. […] Gait analysis was performed before treatment commenced. After 17 days of treatment, medication was stopped and the patient was re-examined 4 days later. […] Gait analysis was performed before treatment commenced. After three weeks of treatment, medication was stopped and the patient was re-examined.

[6] = system: patient with frontotemporal dementia with parkinsonism; assay: Case study, clinical examination; settings: Ex. 9, frontotemporal dementia with parkinsonism; L-Dopa and Ropinirol together
Source text: After approximately one month of acetyl-leucine treatment, medication was stopped and the patient was re-examined 13 days later.

[7] = system: patients with amyotrophic lateral sclerosis (ALS); assay: Case studies, medical examination; settings: Ex. 7 Patient 1, ALS; before acetyl-DL-leucine
Source text: The results were documented by video.

Nc1ccncc1 [4-aminopyridine]
response to treatment ([1]; Ex. 12 Patient 1, downbeat nystagmus, 10 mg twice daily for four weeks): did not give rise to any benefit | response to treatment ([1]; Ex. 12 Patient 2, downbeat nystagmus): did not benefit

N[C@@H](Cc1ccc(O)c(O)c1)C(=O)O [L-Dopa]
response to treatment [2]: no improvement | response to treatment ([3]; Ex. 13 Patient 1, MSA-P, 100/25 mg 3× daily): discreet Levodopa response | tolerability ([3]; Ex. 13 Patient 3, MSA-P): suspended due to side effects | response to treatment [4]: improved the symptomatology | response to treatment ([5]; Ex. 11 Patient 1, progressive supranuclear palsy): little improvement | response to treatment ([5]; Ex. 11 Patient 2, PSP): no levodopa response | response to treatment ([5]; Ex. 11 Patient 3, PSP): no levodopa response | response to treatment ([5]; Ex. 11 Patient 4, PSP): slight levodopa response | response to treatment [6]: little improvement

OCCOCCN1CCN(C2=Nc3ccccc3Sc3ccccc32)CC1 [Quetiapin]
response to treatment [4]: improved the symptomatology

Nc1nc2ccc(OC(F)(F)F)cc2s1 [Riluzol]
clinical symptomatology [7]: clinical symptomatology remained unchanged

CCCN(CCC)CCc1cccc2c1CC(=O)N2 [Ropinirol]
response to treatment [6]: little improvement
